The compounds below were run against PDGFβ (Homo sapiens (Human), UniProt P09619) (assay: PDGF stimulated Ca2+ signal in vitro (PDGFβ cellular, FLIPR, NHDF-Ad)). Settings: PDGF stimulation 10 ng/mL, intracellular calcium.
Chain of PDGFβ (P09619 33-1106): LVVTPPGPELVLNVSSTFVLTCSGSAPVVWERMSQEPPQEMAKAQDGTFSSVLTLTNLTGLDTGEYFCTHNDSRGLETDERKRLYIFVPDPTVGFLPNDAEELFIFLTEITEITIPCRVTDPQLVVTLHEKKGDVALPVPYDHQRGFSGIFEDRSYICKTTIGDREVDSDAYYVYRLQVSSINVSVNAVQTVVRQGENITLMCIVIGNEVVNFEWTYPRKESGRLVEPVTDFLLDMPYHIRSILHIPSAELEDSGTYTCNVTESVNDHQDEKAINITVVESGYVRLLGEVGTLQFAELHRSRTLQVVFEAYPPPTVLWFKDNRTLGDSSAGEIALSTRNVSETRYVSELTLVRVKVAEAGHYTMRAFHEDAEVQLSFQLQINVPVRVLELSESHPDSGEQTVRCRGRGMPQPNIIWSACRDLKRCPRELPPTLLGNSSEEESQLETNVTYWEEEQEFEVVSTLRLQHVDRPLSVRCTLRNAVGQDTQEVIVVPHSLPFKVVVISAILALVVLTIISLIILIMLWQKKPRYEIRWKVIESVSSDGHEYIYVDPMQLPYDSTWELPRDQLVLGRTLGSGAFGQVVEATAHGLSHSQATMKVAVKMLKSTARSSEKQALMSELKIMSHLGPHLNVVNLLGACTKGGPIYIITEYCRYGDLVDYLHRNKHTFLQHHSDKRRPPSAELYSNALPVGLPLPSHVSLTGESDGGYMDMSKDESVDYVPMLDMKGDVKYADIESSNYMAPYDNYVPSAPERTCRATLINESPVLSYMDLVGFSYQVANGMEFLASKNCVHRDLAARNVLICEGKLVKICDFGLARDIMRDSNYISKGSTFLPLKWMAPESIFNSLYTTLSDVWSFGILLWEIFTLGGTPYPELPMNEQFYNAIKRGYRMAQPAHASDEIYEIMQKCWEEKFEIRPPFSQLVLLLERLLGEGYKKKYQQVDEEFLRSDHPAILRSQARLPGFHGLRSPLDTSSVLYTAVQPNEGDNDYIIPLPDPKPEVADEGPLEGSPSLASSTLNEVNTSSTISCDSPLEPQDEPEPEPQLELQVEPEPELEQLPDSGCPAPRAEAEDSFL
Assay type: cell-based
Work on `Cc1cccc(NC(=O)Nc2ccc(Oc3ccnc(-c4cc(C(=O)N5CCC[C@@H](O)C5)c[nH]4)c3)cc2)c1` (stereo in doubt) [Example 90, 1-{4-[(2-{4-[(3-hydroxypiperidin-1-yl)carbonyl]-1H-pyrrol-2-yl}pyridin-4-yl)oxy]phenyl}-3-(3-methylphenyl)urea] yielded an IC50 of 21 nM.
Compound `Cc1cccc(NC(=O)Nc2ccc(Oc3ccnc(-c4cc(C(=O)N5CC[C@@H](O)C5)c[nH]4)c3)cc2)c1` (stereo in doubt) [Example 91, 1-{4-[(2-{4-[(3-hydroxypyrrolidin-1-yl)carbonyl]-1H-pyrrol-2-yl}pyridin-4-yl)oxy]phenyl}-3-(3-methylphenyl)urea] has an IC50 of 38 nM.
`Cc1ccoc1C(=O)Nc1cccc(Oc2ccnc(-c3cc(C(=O)NCC(O)CO)c[nH]3)c2)c1` (stereo not shown) [Example 15, N-(2,3-dihydroxypropyl)-5-(4-{3-[(3-methyl-2-furoyl)amino]phenoxy}pyridin-2-yl)-1H-pyrrole-3-carboxamide] gave an IC50 of 73 nM.
`Cc1ccoc1C(=O)Nc1cccc(Oc2ccnc(-c3cc(C(=O)NO)c[nH]3)c2)c1` [Example 17, N-hydroxy-5-(4-{3-[(3-methyl-2-furoyl)amino]phenoxy}pyridin-2-yl)-1H-pyrrole-3-carboxamide] was tested, and the IC50 was 61 nM.
`Cc1ccc(F)c(NC(=O)c2cccc(Oc3ccnc(-c4cc(C(=O)O)c[nH]4)c3)c2)c1` [Example 19, 5-{4-[3-(2-Fluoro-5-methyl-phenylcarbamoyl)-phenoxy]-pyridin-2-yl}-1H-pyrrole-3-carboxylic acid] gave an IC50 of 135 nM.
With `Cc1ccoc1C(=O)Nc1cccc(Oc2ccnc(-c3cc(C(=O)OCC(O)CO)c[nH]3)c2)c1` (stereo not shown) [Example 21, 2,3-dihydroxypropyl 5-(4-{3-[(3-methyl-2-furoyl)amino]phenoxy}pyridin-2-yl)-1H-pyrrole-3-carboxylate] the IC50 was 39 nM.
For `Cc1cccc(NC(=O)c2cccc(Oc3ccnc(-c4cc(C(=O)O)c[nH]4)c3)c2)c1` [Example 22, 5-[4-(3-m-Tolylcarbamoyl-phenoxy)-pyridin-2-yl]-1H-pyrrole-3-carboxylic acid], the IC50 was 105 nM.
With `Cc1ccoc1C(=O)Nc1cccc(Oc2ccnc(-c3cc(C(=O)N=S(C)(C)=O)c[nH]3)c2)c1` [Example 30, N-[dimethyl(oxido)-lambda˜4˜-sulfanylidene]-5-(4-{3-[(3-methyl-2-furoyl)amino]phenoxy}pyridin-2-yl)-1H-pyrrole-3-carboxamide] the IC50 was 94 nM.
`Cc1ccc(F)c(NC(=O)Nc2ccc(Oc3ccnc(-c4cc(C(=O)NCCCC(=O)NCC(O)CO)c[nH]4)c3)cc2)c1` (stereo not shown) [Example 54, N-{4-[(2,3-dihydroxypropyl)amino]-4-oxobutyl}-5-{4-[4-({[(2-fluoro-5-methylphenyl)amino]carbonyl}amino)phenoxy]pyridin-2-yl}-1H-pyrrole-3-carboxamide] showed an IC50 of 191 nM.
Compound `Cc1ccc(F)c(NC(=O)Nc2ccc(Oc3ccnc(-c4cc(C(=O)NCCCC(N)=O)c[nH]4)c3)cc2)c1` [Example 55, N-(4-amino-4-oxobutyl)-5-{4-[4-({[(2-fluoro-5-methylphenyl)amino]carbonyl}amino)phenoxy]pyridin-2-yl}-1H-pyrrole-3-carboxamide] has an IC50 of 26 nM.
`Cc1cccc(NC(=O)Nc2ccc(Oc3ccnc(-c4cc(C(=O)NCC(O)CO)c[nH]4)c3)cc2)c1` (stereo not shown) [Example 92, N-(2,3-dihydroxypropyl)-5-{4-[4-({[(3-methylphenyl)amino]carbonyl}amino)phenoxy]pyridin-2-yl}-1H-pyrrole-3-carboxamide] gave an IC50 of 39 nM.
For `CCNC(=O)c1c[nH]c(-c2cc(Oc3ccc(NC(=O)Nc4cccc(C)c4)cc3)ccn2)c1` [Example 93, N-ethyl-5-{4-[4-({[(3-methylphenyl)amino]carbonyl}amino)phenoxy]pyridin-2-yl}-1H-pyrrole-3-carboxamide], the IC50 was 14 nM.
In the case of `Cc1ccc(F)c(NC(=O)Nc2ccc(Oc3ccnc(-c4cc(C(=O)O)c[nH]4)c3)cc2F)c1` [Example 96, 5-{4-[3-fluoro-4-({[(2-fluoro-5-methylphenyl)amino]carbonyl}amino)phenoxy]pyridin-2-yl}-1H-pyrrole-3-carboxylic acid], the IC50 is reported as 69 nM.
In the case of `Cc1ccc(F)c(NC(=O)Nc2ccc(Oc3ccnc(-c4cc(C(=O)N=S(C)(C)=O)c[nH]4)c3)cc2)c1` [Example 101, N-[dimethyl(oxido)-lambda˜4˜-sulfanylidene]-5-{4-[4-({[(2-fluoro-5-methylphenyl)amino]carbonyl}amino)phenoxy]pyridin-2-yl}-1H-pyrrole-3-carboxamide], the IC50 is reported as 82 nM.
In the case of `COC(=O)[C@@H]1CCCN1CCNC(=O)c1c[nH]c(-c2cc(Oc3ccc(NC(=O)Nc4cc(C)ccc4F)cc3)ccn2)c1` [Example 102, methyl (2S)-1-(2-{[(5-{4-[4-({[(2-fluoro-5-methylphenyl)amino]carbonyl}amino)phenoxy]pyridin-2-yl}-1H-pyrrol-3-yl)carbonyl]amino}ethyl)pyrrolidine-2-carboxylate], the IC50 is reported as 8 nM.
`Cc1ccc(F)c(NC(=O)Nc2ccc(Oc3ccnc(-c4cc(C(=O)NO)c[nH]4)c3)cc2)c1` [Example 108, 5-{4-[4-({[(2-fluoro-5-methylphenyl)amino]carbonyl}amino)phenoxy]pyridin-2-yl}-N-hydroxy-1H-pyrrole-3-carboxamide] showed an IC50 of 43 nM.
`Cc1ccc(F)c(NC(=O)Nc2ccc(Oc3ccnc(-c4cc(C(=O)NCCCO)c[nH]4)c3)cc2)c1` [Example 110, 5-{4-[4-({[(2-fluoro-5-methylphenyl)amino]carbonyl}amino)phenoxy]pyridin-2-yl}-N-(3-hydroxypropyl)-1H-pyrrole-3-carboxamide] gave an IC50 of 32 nM.
With `Cc1cccc(NC(=O)Nc2ccc(Oc3ccnc(-c4cc(C(=O)O)c[nH]4)c3)cc2)c1` [Example 115, 5-{4-[4-({[(3-methylphenyl)amino]carbonyl}amino)phenoxy]pyridin-2-yl}-1H-pyrrole-3-carboxylic acid] the IC50 was 44 nM.
Compound `O=C(Nc1ccc(Oc2ccnc(-c3cc(C(=O)O)c[nH]3)c2)cc1)Nc1ccc(Cl)c(C(F)(F)F)c1` [Example 121, 5-(4-{4-[({[4-chloro-3-(trifluoromethyl)phenyl]amino}carbonyl)amino]phenoxy}pyridin-2-yl)-1H-pyrrole-3-carboxylic acid] has an IC50 of 102 nM.
In the case of `Cc1ccc(F)c(NC(=O)Nc2ccc(Oc3ccnc(-c4csc(C(=O)O)c4)c3)cc2)c1` [Example 123, 4-{4-[4-({[(2-fluoro-5-methylphenyl)amino]carbonyl}amino)phenoxy]pyridin-2-yl}thiophene-2-carboxylic acid], the IC50 is reported as 85 nM.
`Cc1ccc(F)c(NC(=O)Nc2ccc(Oc3ccnc(-c4cc(C(=O)NCC(O)CO)c[nH]4)c3)cc2)c1` (stereo not shown) [Example 127, N-(2,3-dihydroxypropyl)-5-{4-[4-({[(2-fluoro-5-methylphenyl)amino]carbonyl}amino)phenoxy]pyridin-2-yl}-1H-pyrrole-3-carboxamide] gave an IC50 of 91 nM.
Compound `Cc1ccc(F)c(NC(=O)Nc2ccc(Oc3ccnc(-c4cc(C(=O)OCC(O)CO)c[nH]4)c3)cc2)c1` (stereo not shown) [Example 130, 2,3-dihydroxypropyl 5-{4-[4-({[(2-fluoro-5-methylphenyl)amino]carbonyl}amino)phenoxy]pyridin-2-yl}-1H-pyrrole-3-carboxylate] has an IC50 of 32 nM.

From patent US8614234B2, “Compounds as tyrosine kinase modulators” (Allergan, Inc., priority 2009, dated 2013)
